± gives the expanded uncertainty stated by the source.
Details: 343.15 K, Liquid, Vibrating tube method

Measured: mass density

CCCCC(=O)OCC(COC(=O)CCCC)(COC(=O)CCCC)COC(=O)CCCC [pentaerythritol tetrapentanoate]
995 ± 1.2 kg/m3: 22664 kPa
988.7 ± 1.2 kg/m3: 13408 kPa | 13466 kPa | 13495 kPa | 13530 kPa | 13559 kPa
990.6 ± 1.2 kg/m3: 15877 kPa | 16052 kPa | 16091 kPa | 16159 kPa
989.3 ± 1.2 kg/m3: 14213 kPa | 14350 kPa
993.1 ± 1.2 kg/m3: 19520 kPa | 19549 kPa | 19638 kPa | 19689 kPa | 19737 kPa
989.1 ± 1.2 kg/m3: 13877 kPa | 14110 kPa | 14149 kPa | 14181 kPa
988.4 ± 1.2 kg/m3: 13082 kPa | 13164 kPa | 13226 kPa | 13254 kPa
991 ± 1.2 kg/m3: 16493 kPa | 16530 kPa | 16566 kPa | 16602 kPa | 16680 kPa
990.4 ± 1.2 kg/m3: 15774 kPa | 15806 kPa | 15845 kPa | 15910 kPa | 15950 kPa
997.4 ± 1.2 kg/m3: 25895 kPa | 26210 kPa
992.5 ± 1.2 kg/m3: 18668 kPa | 18709 kPa | 18744 kPa | 18780 kPa | 18892 kPa
990.2 ± 1.2 kg/m3: 15411 kPa | 15578 kPa
992.6 ± 1.2 kg/m3: 18971 kPa | 19007 kPa | 19088 kPa
997.9 ± 1.2 kg/m3: 26684 kPa | 26720 kPa | 26756 kPa | 26800 kPa
989.4 ± 1.2 kg/m3: 14284 kPa | 14423 kPa | 14457 kPa
993.6 ± 1.2 kg/m3: 20119 kPa | 20301 kPa | 20517 kPa | 20542 kPa
997.7 ± 1.2 kg/m3: 26536 kPa | 26607 kPa | 26649 kPa
996.3 ± 1.2 kg/m3: 24297 kPa | 24371 kPa | 24452 kPa
989.7 ± 1.2 kg/m3: 14641 kPa | 14717 kPa | 14752 kPa | 14787 kPa | 14829 kPa | 14943 kPa
991.9 ± 1.2 kg/m3: 17765 kPa | 17796 kPa | 17864 kPa | 17896 kPa | 17928 kPa | 17966 kPa | 18171 kPa
989.2 ± 1.2 kg/m3: 13945 kPa | 14014 kPa | 14045 kPa | 14077 kPa | 14252 kPa | 14318 kPa
991.2 ± 1.2 kg/m3: 16841 kPa | 16997 kPa | 17035 kPa
995.7 ± 1.2 kg/m3: 23324 kPa | 23466 kPa
989.9 ± 1.2 kg/m3: 15016 kPa | 15097 kPa | 15171 kPa | 15214 kPa | 15289 kPa
994 ± 1.2 kg/m3: 20880 kPa | 20939 kPa | 20965 kPa
996.4 ± 1.2 kg/m3: 24334 kPa | 24529 kPa | 24612 kPa | 24696 kPa | 24734 kPa
996 ± 1.2 kg/m3: 24021 kPa | 24064 kPa
988.5 ± 1.2 kg/m3: 13022 kPa | 13137 kPa | 13198 kPa | 13287 kPa
989 ± 1.2 kg/m3: 13750 kPa | 13780 kPa | 13816 kPa | 13847 kPa | 13976 kPa
991.1 ± 1.2 kg/m3: 16724 kPa | 16760 kPa | 16796 kPa | 16878 kPa | 16915 kPa | 16959 kPa
988.8 ± 1.2 kg/m3: 13594 kPa | 13624 kPa | 13683 kPa
992.3 ± 1.2 kg/m3: 18490 kPa | 18558 kPa
988.2 ± 1.2 kg/m3: 12882 kPa | 12937 kPa
994.3 ± 1.2 kg/m3: 21281 kPa | 21342 kPa | 21370 kPa
993.2 ± 1.2 kg/m3: 19666 kPa | 19761 kPa | 19789 kPa | 19813 kPa | 19836 kPa | 19864 kPa
998 ± 1.2 kg/m3: 26835 kPa | 26871 kPa | 26914 kPa | 26950 kPa | 26986 kPa | 27101 kPa
997.8 ± 1.2 kg/m3: 26502 kPa | 26571 kPa
990.9 ± 1.2 kg/m3: 16378 kPa | 16456 kPa | 16644 kPa
997 ± 1.2 kg/m3: 25314 kPa
995.3 ± 1.2 kg/m3: 22696 kPa
991.4 ± 1.2 kg/m3: 17204 kPa | 17243 kPa | 17282 kPa
997.2 ± 1.2 kg/m3: 25839 kPa
989.6 ± 1.2 kg/m3: 14390 kPa | 14676 kPa | 14864 kPa
992.7 ± 1.2 kg/m3: 18857 kPa | 18935 kPa | 19052 kPa | 19126 kPa
993.4 ± 1.2 kg/m3: 19988 kPa | 20042 kPa | 20095 kPa | 20355 kPa
988.9 ± 1.2 kg/m3: 13653 kPa | 13719 kPa | 13914 kPa
992.1 ± 1.2 kg/m3: 18100 kPa | 18276 kPa | 18309 kPa | 18342 kPa | 18450 kPa
988.3 ± 1.2 kg/m3: 12909 kPa | 12964 kPa | 12996 kPa | 13049 kPa | 13109 kPa
991.7 ± 1.2 kg/m3: 17697 kPa | 17827 kPa
993 ± 1.2 kg/m3: 19458 kPa | 19579 kPa | 19613 kPa | 19713 kPa
991.5 ± 1.2 kg/m3: 17371 kPa | 17500 kPa | 17630 kPa
992.9 ± 1.2 kg/m3: 19211 kPa | 19284 kPa | 19340 kPa | 19368 kPa | 19401 kPa | 19429 kPa | 19491 kPa
996.5 ± 1.2 kg/m3: 24490 kPa | 24574 kPa | 24650 kPa | 24772 kPa | 24856 kPa
992.2 ± 1.2 kg/m3: 18204 kPa | 18382 kPa | 18416 kPa
995.2 ± 1.2 kg/m3: 22626 kPa
998.1 ± 1.2 kg/m3: 27029 kPa | 27182 kPa
994.1 ± 1.2 kg/m3: 20992 kPa | 21052 kPa | 21079 kPa | 21106 kPa
996.7 ± 1.2 kg/m3: 24895 kPa | 24934 kPa
995.1 ± 1.2 kg/m3: 22531 kPa
997.5 ± 1.2 kg/m3: 26261 kPa | 26310 kPa | 26350 kPa
990.8 ± 1.2 kg/m3: 16199 kPa | 16268 kPa | 16302 kPa | 16413 kPa
989.8 ± 1.2 kg/m3: 14900 kPa | 14979 kPa | 15053 kPa | 15134 kPa
994.2 ± 1.2 kg/m3: 21254 kPa | 21309 kPa
990 ± 1.2 kg/m3: 15334 kPa | 15372 kPa
996.9 ± 1.2 kg/m3: 25274 kPa | 25354 kPa
996.2 ± 1.2 kg/m3: 23985 kPa | 24136 kPa | 24216 kPa | 24253 kPa | 24415 kPa
988.6 ± 1.2 kg/m3: 13318 kPa | 13346 kPa | 13374 kPa | 13437 kPa
992.4 ± 1.2 kg/m3: 18524 kPa | 18600 kPa | 18634 kPa | 18821 kPa
991.3 ± 1.2 kg/m3: 17081 kPa | 17119 kPa | 17158 kPa
990.5 ± 1.2 kg/m3: 15704 kPa | 15982 kPa | 16016 kPa
993.5 ± 1.2 kg/m3: 20143 kPa | 20173 kPa | 20197 kPa | 20222 kPa | 20251 kPa | 20276 kPa | 20461 kPa
993.8 ± 1.2 kg/m3: 20629 kPa | 20660 kPa | 20687 kPa | 20770 kPa | 20823 kPa
989.5 ± 1.2 kg/m3: 14497 kPa | 14531 kPa | 14566 kPa | 14607 kPa
990.1 ± 1.2 kg/m3: 15252 kPa | 15458 kPa | 15497 kPa
996.8 ± 1.2 kg/m3: 24981 kPa
991.6 ± 1.2 kg/m3: 17330 kPa | 17412 kPa | 17462 kPa | 17533 kPa | 17569 kPa | 17600 kPa | 17666 kPa
993.3 ± 1.2 kg/m3: 19888 kPa | 19912 kPa | 19941 kPa | 19964 kPa | 20017 kPa | 20066 kPa
998.2 ± 1.2 kg/m3: 27065 kPa | 27145 kPa | 27219 kPa | 27256 kPa | 27301 kPa | 27339 kPa | 27376 kPa | 27421 kPa | 27458 kPa
990.3 ± 1.2 kg/m3: 15537 kPa | 15628 kPa | 15668 kPa | 15742 kPa
991.8 ± 1.2 kg/m3: 17728 kPa | 17998 kPa
997.6 ± 1.2 kg/m3: 26385 kPa | 26426 kPa | 26460 kPa
990.7 ± 1.2 kg/m3: 16125 kPa | 16233 kPa | 16344 kPa
993.9 ± 1.2 kg/m3: 20713 kPa | 20740 kPa | 20797 kPa | 20854 kPa | 20907 kPa | 21020 kPa
992.8 ± 1.2 kg/m3: 19172 kPa | 19248 kPa | 19312 kPa
993.7 ± 1.2 kg/m3: 20330 kPa | 20381 kPa | 20410 kPa | 20436 kPa | 20487 kPa | 20568 kPa | 20598 kPa
992 ± 1.2 kg/m3: 18030 kPa | 18068 kPa | 18132 kPa | 18236 kPa
996.1 ± 1.2 kg/m3: 24180 kPa
995.5 ± 1.2 kg/m3: 23251 kPa
